# Data from patent publication US9169254B2, “Spiroimidazolone derivative” (Chugai Seiyaku Kabushiki Kaisha, priority 2009, dated 2015).
# Target: T1, human PTH1 receptor (Homo sapiens, UniProt Q03431)
# T1 sequence (Q03431 27-593): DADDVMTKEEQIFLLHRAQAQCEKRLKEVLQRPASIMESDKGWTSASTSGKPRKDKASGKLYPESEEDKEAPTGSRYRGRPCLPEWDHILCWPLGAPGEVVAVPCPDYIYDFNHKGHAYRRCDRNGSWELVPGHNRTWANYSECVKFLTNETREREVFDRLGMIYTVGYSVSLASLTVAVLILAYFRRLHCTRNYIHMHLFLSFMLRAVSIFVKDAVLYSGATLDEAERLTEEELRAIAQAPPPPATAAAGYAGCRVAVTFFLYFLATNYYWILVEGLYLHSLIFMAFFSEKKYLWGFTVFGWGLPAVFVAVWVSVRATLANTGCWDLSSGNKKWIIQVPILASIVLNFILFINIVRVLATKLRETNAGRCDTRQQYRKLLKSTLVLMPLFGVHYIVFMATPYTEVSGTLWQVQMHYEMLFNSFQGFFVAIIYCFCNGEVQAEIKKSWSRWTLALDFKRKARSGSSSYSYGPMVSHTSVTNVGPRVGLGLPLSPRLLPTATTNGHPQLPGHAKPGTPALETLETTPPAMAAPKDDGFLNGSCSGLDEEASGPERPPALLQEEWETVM
# Test: In vitro cAMP signal activity in HKRK-B7 cells (LLC-PK1 cells overexpressing the human PTH1 receptor)
# Assay type: cell-based
# Details: 0.1 µM
row,Compound,cAMP production activity (%)
1,"Cc1cc(N(C)C(N)=O)cc(C)c1CCS(=O)(=O)N1CCC2(CC1)N=C(c1cccc(C(F)(F)C(F)(F)C(F)(F)C(F)(F)F)c1)NC2=O [Compound 1341, 1-(3,5-dimethyl-4-{2-[2-(3-nonafluorobutyl-phenyl)-4-oxo-1,3,8-triaza-spiro[4.5]dec-1-ene-8-sulfonyl]-ethyl}-phenyl)-1-methyl-urea]",83

# Same assay, conditions: HKRK-B7 cells; compound at 1×10^−3 M; cAMP produced as percentage of that produced by hPTH(1-34) at 100 nM
row,Compound,cAMP production activity (%)
1,"Cc1cc(OC[C@H](O)CO)cc(C)c1CCS(=O)(=O)N1CCC2(CC1)N=C(c1ccc(F)c(OC(F)(F)F)c1)NC2=O [Compound 1329, 8-{2-[4-((R)-2,3-dihydroxy-propoxy)-2,6-dimethyl-phenyl]-ethanesulfonyl}-2-(4-fluoro-3-trifluoromethoxy-phenyl)-1,3,8-triaza-spiro[4.5]dec-1-en-4-one]",85
2,"Cc1cc(OC[C@H](O)CO)cc(C)c1CCS(=O)(=O)N1CCC2(CC1)N=C(c1ccc3c(c1)OC(F)(F)O3)NC2=O [Compound 1330, 2-(2,2-difluoro-benzo[1,3]dioxol-5-yl)-8-{2-[4-((R)-2,3-dihydroxy-propoxy)-2,6-dimethyl-phenyl]-ethanesulfonyl}-1,3,8-triaza-spiro[4.5]dec-1-en-4-one]",9.2
3,"Cc1cc(C(=O)N2CCC(O)CC2)cc(C)c1CCS(=O)(=O)N1CCC2(CC1)N=C(c1ccc3c(c1)OC(F)(F)O3)NC2=O [Compound 1333, 2-(2,2-difluoro-benzo[1,3]dioxol-5-yl)-8-{2-[4-(4-hydroxy-piperidine-1-carbonyl)-2,6-dimethyl-phenyl]-ethanesulfonyl}-1,3,8-triaza-spiro[4.5]dec-1-en-4-one]",109
4,"Cc1cc(C(=O)N2CCC(O)CC2)cc(C)c1CCS(=O)(=O)N1CCC2(CC1)N=C(c1ccc(F)c(OC(F)(F)F)c1)NC2=O [Compound 1334, 2-(4-fluoro-3-trifluoromethoxy-phenyl)-8-{2-[4-(4-hydroxy-piperidine-1-carbonyl)-2,6-dimethyl-phenyl]-ethanesulfonyl}-1,3,8-triaza-spiro[4.5]dec-1-en-4-one]",116
5,"Cc1cc(C(=O)N2CCC(C)(O)CC2)cc(C)c1CCS(=O)(=O)N1CCC2(CC1)N=C(c1ccc(F)c(OC(F)(F)F)c1)NC2=O [Compound 1335, 2-(4-fluoro-3-trifluoromethoxy-phenyl)-8-{2-[4-(4-hydroxy-4-methyl-piperidine-1-carbonyl)-2,6-dimethyl-phenyl]-ethanesulfonyl}-1,3,8-triaza-spiro[4.5]dec-1-en-4-one]",97
6,"Cc1cc(C(=O)N2CCC(C)(O)CC2)cc(C)c1CCS(=O)(=O)N1CCC2(CC1)N=C(c1ccc3c(c1)OC(F)(F)O3)NC2=O [Compound 1336, 2-(2,2-difluoro-benzo[1,3]dioxol-5-yl)-8-{2-[4-(4-hydroxy-4-methyl-piperidine-1-carbonyl)-2,6-dimethyl-phenyl]-ethanesulfonyl}-1,3,8-triaza-spiro[4.5]dec-1-en-4-one]",133
7,"Cc1cc(C(=O)N2CC(O)C2)cc(C)c1CCS(=O)(=O)N1CCC2(CC1)N=C(c1ccc(F)c(OC(F)(F)F)c1)NC2=O [Compound 1337, 2-(4-fluoro-3-trifluoromethoxy-phenyl)-8-{2-[4-(3-hydroxy-azetidine-1-carbonyl)-2,6-dimethyl-phenyl]-ethanesulfonyl}-1,3,8-triaza-spiro[4.5]dec-1-en-4-one]",44
8,"Cc1cc(N(C)C(N)=O)cc(C)c1CCS(=O)(=O)N1CCC2(CC1)N=C(c1cccc(OCCCC(F)(F)F)c1)NC2=O [Compound 1338, 1-[3,5-dimethyl-4-(2-{4-oxo-2-[3-(4,4,4-trifluoro-butoxy)-phenyl]-1,3,8-triaza-spiro[4.5]dec-1-ene-8-sulfonyl}-ethyl)-phenyl]-1-methyl-urea]",84
9,"Cc1cc(N(C)C(N)=O)cc(C)c1CCS(=O)(=O)N1CCC2(CC1)N=C(c1ccc(OCCCC(F)(F)F)cc1)NC2=O [Compound 1339, 1-[3,5-dimethyl-4-(2-{4-oxo-2-[4-(4,4,4-trifluoro-butoxy)-phenyl]-1,3,8-triaza-spiro[4.5]dec-1-ene-8-sulfonyl}-ethyl)-phenyl]-1-methyl-urea]",86
10,"CCCc1cc2ccc(C3=NC4(CCN(S(=O)(=O)CCc5c(C)cc(N(C)C(N)=O)cc5C)CC4)C(=O)N3)cc2o1 [Compound 1355, 1-(3,5-dimethyl-4-{2-[4-oxo-2-(2-propyl-benzofuran-6-yl)-1,3,8-triaza-spiro[4.5]dec-1-ene-8-sulfonyl]-ethyl}-phenyl)-1-methyl-urea]",118

# The next lines start with the values.
row,cAMP production activity (%),Compound
1,84,"Cc1cc(N(C)C(N)=O)cc(C)c1CCS(=O)(=O)N1CCC2(CC1)N=C(CCCCCc1ccccc1)NC2=O [Compound 1340, 1-(3,5-dimethyl-4-{2-[4-oxo-2-(5-phenyl-pentyl)-1,3,8-triaza-spiro[4.5]dec-1-ene-8-sulfonyl]-ethyl}-phenyl)-1-methyl-urea]"
2,114,"CCCCCc1ccc(C2=NC3(CCN(S(=O)(=O)CCc4c(C)cc(N(C)C(N)=O)cc4C)CC3)C(=O)N2)cc1 [Compound 1342, 1-(3,5-dimethyl-4-{2-[4-oxo-2-(4-pentyl-phenyl)-1,3,8-triaza-spiro[4.5]dec-1-ene-8-sulfonyl]-ethyl}-phenyl)-1-methyl-urea]"
3,98,"CCC[C@@H]1CCC[C@H](C2=NC3(CCN(S(=O)(=O)CCc4c(C)cc(N(C)C(N)=O)cc4C)CC3)C(=O)N2)C1 [Compound 1343, 1-(3,5-dimethyl-4-{2-[4-oxo-2-((1S,3R)-3-propyl-cyclohexyl)-1,3,8-triaza-spiro[4.5]dec-1-ene-8-sulfonyl]-ethyl}-phenyl)-1-methyl-urea]"
4,94,"CCOCCCCCCC1=NC2(CCN(S(=O)(=O)CCc3c(C)cc(N(C)C(N)=O)cc3C)CC2)C(=O)N1 [Compound 1344, 1-(4-{2-[2-(6-ethoxy-hexyl)-4-oxo-1,3,8-triaza-spiro[4.5]dec-1-ene-8-sulfonyl]-ethyl}-3,5-dimethyl-phenyl)-1-methyl-urea]"
5,107,"Cc1cc(N(C)C(N)=O)cc(C)c1CCS(=O)(=O)N1CCC2(CC1)N=C(c1cccc(CCCCCC(F)(F)F)c1)NC2=O [Compound 1345, 1-[3,5-dimethyl-4-(2-{4-oxo-2-[3-(6,6,6-trifluoro-hexyl)-phenyl]-1,3,8-triaza-spiro[4.5]dec-1-ene-8-sulfonyl}-ethyl)-phenyl]-1-methyl-urea]"
6,87,"CCOC(=O)CCCCCCCCCCCC1=NC2(CCN(S(=O)(=O)CCc3c(C)cc(N(C)C(N)=O)cc3C)CC2)C(=O)N1 [Compound 1347, 12-(8-{2-[2,6-dimethyl-4-(1-methyl-ureido)-phenyl]-ethanesulfonyl}-4-oxo-1,3,8-triaza-spiro[4.5]dec-1-en-2-yl)-dodecanoic acid ethyl ester]"
7,95,"Cc1cc(N(C)C(N)=O)cc(C)c1CCS(=O)(=O)N1CCC2(CC1)N=C(CCCCCCCCCc1ccccc1)NC2=O [Compound 1348, 1-(3,5-dimethyl-4-{2-[4-oxo-2-(9-phenyl-nonyl)-1,3,8-triaza-spiro[4.5]dec-1-ene-8-sulfonyl]-ethyl}-phenyl)-1-methyl-urea]"
8,98,"Cc1cc(N(C)C(N)=O)cc(C)c1CCS(=O)(=O)N1CCC2(CC1)N=C(CCCCCCc1ccccc1)NC2=O [Compound 1349, 1-(3,5-dimethyl-4-{2-[4-oxo-2-(6-phenyl-hexyl)-1,3,8-triaza-spiro[4.5]dec-1-ene-8-sulfonyl]-ethyl}-phenyl)-1-methyl-urea]"
9,22,"Cc1cc(N(C)C(N)=O)cc(C)c1CCS(=O)(=O)N1CCC2(CC1)N=C(CCCCCCCCCCCCCC(=O)O)NC2=O [Compound 1350, 14-(8-{2-[2,6-dimethyl-4-(1-methyl-ureido)-phenyl]-ethanesulfonyl}-4-oxo-1,3,8-triaza-spiro[4.5]dec-1-en-2-yl)-tetradecanoic acid]"
10,100,"COCCCCCCCC1=NC2(CCN(S(=O)(=O)CCc3c(C)cc(N(C)C(N)=O)cc3C)CC2)C(=O)N1 [Compound 1351, 1-(4-{2-[2-(7-methoxy-heptyl)-4-oxo-1,3,8-triaza-spiro[4.5]dec-1-ene-8-sulfonyl]-ethyl}-3,5-dimethyl-phenyl)-1-methyl-urea]"
11,78,"CCCOCCCCCC1=NC2(CCN(S(=O)(=O)CCc3c(C)cc(N(C)C(N)=O)cc3C)CC2)C(=O)N1 [Compound 1352, 1-(3,5-dimethyl-4-{2-[4-oxo-2-(5-propoxy-pentyl)-1,3,8-triaza-spiro[4.5]dec-1-ene-8-sulfonyl]-ethyl}-phenyl)-1-methyl-urea]"
12,111,"CCCCCCC(CCC)CCC1=NC2(CCN(S(=O)(=O)CCc3c(C)cc(N(C)C(N)=O)cc3C)CC2)C(=O)N1 (stereo not drawn) [Compound 1353, 1-(3,5-dimethyl-4-{2-[4-oxo-2-(3-propyl-nonyl)-1,3,8-triaza-spiro[4.5]dec-1-ene-8-sulfonyl]-ethyl}-phenyl)-1-methyl-urea]"
13,128,"CCCCCc1ccc(C2=NC3(CCN(S(=O)(=O)CCc4c(C)cc(N(C)C(N)=O)cc4C)CC3)C(=O)N2)cc1OC [Compound 1354, 1-(4-{2-[2-(3-methoxy-4-pentyl-phenyl)-4-oxo-1,3,8-triaza-spiro[4.5]dec-1-ene-8-sulfonyl]-ethyl}-3,5-dimethyl-phenyl)-1-methyl-urea]"
